Test results from patent publication EP0556720B1, “5-Aminoflavone derivatives” (KYOWA HAKKO KOGYO CO., LTD., priority 1992, dated 1993).
Values after ≈ are worked out from the molar mass of the structure shown.

What was measured:
[1] = tested on: estrogen dependent human mammary cancer MCF-7; assay: Antitumor effects against estrogen dependent human mammary cancer MCF-7 transplanted subcutaneously in nude mice; type: in vivo, female BALB/C-nu/nu mice; conditions: orally, five days per week for four weeks, ratio of V/V0 of treated group to control group
Description: Antitumor effects against estrogen dependent human mammary cancer MCF-7
Tumor strips (2mm x 2 mm x 2mm) of human hormone dependent mammary cancer MCF-7 were transplanted subcutaneously in the ventral part of female BALB/C-nu/nu mice (Nihon Crea), 7-9 weeks age. For promoting the growth of tumor, 12.5 µg of estradiol was intramuscularlly administered three times in the femoral region on the date of transplantation and 7 and 14 days after transplantation. 7 Days after transplantation, mice the tumor volume of which increased to 10-100 mm^3 were selected, and test compounds were orally administered repeatedly for five days per a week, for four weeks, at five animals per group. Length and breadth of the tumor were determined, and the tumor volumes were calculated by means of ellipsoid approximation according to the following equation: (Tumor volume […]= {Length (mm) x [Breadth (mm)])^2 }/2 [formula]
The tumor volume (V0) at initial administration was determined. The tumor volume (V) was determined after initiation to calculate V/V0 from which the ratio (T/C), that is, the ratio of V/V0 value of treated group relative to that of control group was obtained.

HeLaS3 cells = assay: Human uterine cervix carcinoma (HeLaS3) growth inhibition test, neutral red staining; type: cell-based; conditions: HeLa S3, 72 hours culture with sample, absorbance at 550 nm
Description: Human uterine cervix carcinoma (HeLaS3) growth inhibition test;
Each 0.1 ml of HeLaS3 cells which had been prepared to 3 x 10^4/ml using a medium (referred to as Medium A hereinafter) consisted of MEM medium, 2 mM glutamine and 10% bovine fetal serum was distributed in each well of 96 well-microtiter plate. The plate was cultured at 37 °C for 20 hours in a CO2 gas incubator, each 0.05 ml of samples (test compounds) which had been appropriately diluted with Medium A was added thereto and the mixture was cultured at 37 °C for 72 hours in a CO2 gas incubator. Supernatant was removed, each 0.1 ml of Medium A containing 0.02% neutral red was added to the residue, the mixture was cultured at 37 °C for 1 hour in a CO2 gas incubator and the cells were stained. Supernatant was removed and the residue was washed once with saline. Then, the pigment was extracted with 0.001N hydrochloric acid/30% ethanol and the absorbance at 550 nm was measured with a microplatereader.

Bacillus subtilis #10107 = assay: Antibacterial activity, minimum inhibition concentration by agar dilution method; type: cell-based; conditions: agar dilution method at pH 7.0
Description: Antibacterial activity of the compound (I) against Bacillus subtilis #10107 [Minimum Inhibition Concentration (MIC; µg/ml)] is shown in Table 2. Minimum Inhibition Concentration was determined by agar dilution method at pH 7.0.

MCF-7 cells = assay: Human mammary cancer (MCF-7) growth inhibition test, neutral red staining; type: cell-based; conditions: MCF7, medium with 10^-8M estradiol, 72 hours culture with sample
Description: Human mammary cancer (MCF-7) growth inhibition test;
Each 0.1 ml of MCF-7 cells which had been prepared to 5 x 10^4/ml using a medium (referred to as Medium B hereinafter) prepared by adding 10% bovine fetal serum, 10^-8M estradiol (manufactured by Sigma), 100 units/ml penicillin and 100 µg/ml streptomycin to medium RPMI1640 was distributed in each well of 96 well-microtiter plate. The plate was cultured at 37 °C for 20 hours in a CO2 gas incubator, each 0.05 ml of samples (test compounds) which had been appropriately diluted with Medium B was added thereto and the mixture was cultured at 37 °C for 72 hours in a CO2 gas incubator. Supernatant was removed, each 0.1 ml of Medium B containing 0.02% neutral red was added to the residue, the mixture was cultured at 37 °C for 1 hour in a CO2 gas incubator and the cells were stained. IC50 was calculated according to the same manner as that in Test 2.

SMILES | IC50 (HeLaS3 cells) | MIC (Bacillus subtilis #10107) | IC50 (MCF-7 cells) | T/C ([1]; Dose 6.3 mg/kg, Date 22) | T/C ([1]; Dose 25 mg/kg, Date 29)
Nc1ccc(-c2cc(=O)c3c(N)c(F)cc(F)c3o2)cc1 [Compound 12, 5-Amino-2-(4-aminophenyl)-6,8-difluoro-4H-1-benzopyran-4-one] | 10 µM | – | – | 0.45 | –
NCCCNc1ccc(-c2cc(=O)c3c(N)c(F)cc(F)c3o2)cc1 [Compound 24, 5-Amino-2-[4-[(3-aminopropyl)amino]phenyl]-6,8-difluoro-4H-1-benzopyran-4-one] | 3.4 µM | 2.6 µg/mL (≈ 7.53 µM) | – | – | –
Nc1c(F)cc(F)c2oc(-c3ccc(NCCCCCCn4ccnc4)c(F)c3)cc(=O)c12 [Compound 52, 5-Amino-6,8-difluoro-2-[3-fluoro-4-[6-(imidazol-1-yl)hexylamino]phenyl]-4H-1-benzopyran-4-one] | 4.4 µM | – | 2 µM | – | –

Continued by falling IC50 (HeLaS3 cells), values first:

IC50 (HeLaS3 cells) | MIC (Bacillus subtilis #10107) | IC50 (MCF-7 cells) | SMILES | T/C ([1]; Dose 6.3 mg/kg, Date 22) | T/C ([1]; Dose 25 mg/kg, Date 29)
26 µM | – | – | Nc1ccc(-c2cc(=O)c3c(N)c(F)cc(F)c3o2)cc1F [Compound 26, 5-Amino-2-(4-amino-3-fluorophenyl)-6,8-difluoro-4H-1-benzopyran-4-one] | – | 0.45
5.8 µM | 5.2 µg/mL (≈ 15.9 µM) | – | NCCCNc1ccc(-c2cc(=O)c3c(N)c(F)ccc3o2)cc1 [Compound 16, 5-Amino-2-[4-[(3-aminopropyl)amino]phenyl]-6-fluoro-4H-1-benzopyran-4-one] | – | –
